Patent publication US9708266B2, “Cyclohexyl pyridine derivative” (priority 2014, dated 2017)

What was measured:
Type in all cases: in vivo
[1] = target: NK1 receptor (Meriones unguiculatus (Mongolian jird) (Gerbillus unguiculatus), UniProt Q5DUB1); assay: Effect on GR73632-induced foot-tapping; settings: male gerbil, 0.1 mg/kg iv, GR73632 icv after four hours
Experimental: (§1) The test compound solution was prepared by dissolving the test compound in a vehicle (a mixture of 50% N,N-dimethylacetamide (Wako Pure Chemical Industries), 30% propylene glycol (Wako Pure Chemical Industries), 4% 2-hydroxypropyl-3-cyclodextrin (Wako Pure Chemical Industries) and 16% distilled water).
A male gerbil (Japan SLC) was anesthetized with isoflurane, and 0.1 mg/kg of a test compound was administered from the jugular vein. After four hours, GR73632 (5 pmol/5 μl saline), which is an NK1 receptor agonist, was administered into the cerebral ventricle at the part 1 mm lateral to and 4.5 mm below the bregma in the head, under anesthesia with isoflurane. After the administration, the gerbil was moved to an observation cage, and the foot-tapping period during 30 minutes after the recovery of the righting reflex was measured. The foot-tapping inhibition rate (%) of each test compound was calculated by the following equation. Foot-tapping inhibition rate (%)={1−(Foot-tapping period when test compound was administered)/(Foot-tapping period when solvent was administered)}×100 (2) Measurement of Drug Concentrations

[2] = test system: cisplatin-induced acute and delayed emetic response; assay: Effect on cisplatin-induced acute and delayed emetic response; settings: male ferret, 0.01 or 0.1 mg/kg iv, cisplatin 5 mg/kg ip
Experimental: The vertical axes show the number of retching and vomiting (Retches+Vomits) (the mean+standard error of 3 examples of control group, the mean+standard error of 3 examples of the group intravenously administered with 0.01 mg/kg, and the mean+standard error of 3 examples of the group intravenously administered with 0.1 mg/kg).
Effect on Cisplatin-Induced Acute and Delayed Emetic Response
as §1, with “2-hydroxypropyl-β-cyclodextrin” for “2-hydroxypropyl-3-cyclodextrin”, “water). The vehicle only was administered to the control group.” for “water).”
Under anesthesia with isoflurane, 0.01 mg/kg or 0.1 mg/kg of the test compound was intravenously administered to a male ferret (Marshall BioResources Japan) from the jugular vein. Cisplatin in saline, which was heated to 40-50° C., was intraperitoneally administered at 5 mg/kg one hour after the drug administration.

[3] = Ferret pharmacokinetic test; settings: male ferret, plasma
Experimental: Ferret Pharmacokinetic Test
The test compound solution for intravenous administration was prepared by dissolving the test compound in a vehicle (a mixture of 50% N,N-dimethylacetamide (Wako Pure Chemical Industries), 30% propylene glycol (Wako Pure Chemical Industries), 4% 2-hydroxypropyl-β-cyclodextrin (Wako Pure Chemical Industries) and 16% distilled water). As an oral administration solution, the suspension (0.5% methylcelluose) was used.
Under anesthesia with isoflurane, 0.1 mg/kg of the test compound was intravenously administered to a male ferret (Marshall BioResources Japan) from the femoral vein. In the case of oral administration, 1 mg/kg of the test compound was orally administered to an awake animal. After the administration of the test compound, blood samples were taken sequentially from the brachial cephalic vein up to 7 days after the administration. Through a quantitative analysis using liquid chromatography-mass spectrometry (LC/MS), the concentrations of the test compound in the plasma were measured.
In the tables, Ex. No. means the Example number. t1/2, CLtot and Vss are the half-life, the total body clearance and the steady-state volume of distribution, based on the plasma concentrations in the case of intravenous administration, respectively. Cmax, AUC and BA are the maximum plasma test compound concentration, the area under the plasma test compound concentration-time curve within 7 days after the administration and the bioavailability, in the case of oral administration, respectively.

Sequence of NK1 receptor (Q5DUB1 whole entry): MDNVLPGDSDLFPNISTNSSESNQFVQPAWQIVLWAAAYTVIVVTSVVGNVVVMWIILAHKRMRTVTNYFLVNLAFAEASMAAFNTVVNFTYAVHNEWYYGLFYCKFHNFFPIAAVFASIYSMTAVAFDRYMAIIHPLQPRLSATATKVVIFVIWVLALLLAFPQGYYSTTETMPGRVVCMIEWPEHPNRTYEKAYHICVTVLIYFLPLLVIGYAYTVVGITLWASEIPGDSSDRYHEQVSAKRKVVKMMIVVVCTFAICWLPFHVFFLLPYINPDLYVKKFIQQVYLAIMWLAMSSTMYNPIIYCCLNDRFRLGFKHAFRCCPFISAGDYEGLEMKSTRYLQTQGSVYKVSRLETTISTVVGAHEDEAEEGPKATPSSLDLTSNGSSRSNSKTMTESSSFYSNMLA

| SMILES | Inhibition (foot-tapping inhibition rate) [1] [%] | other results |
| --- | --- | --- |
| Cc1cc(F)ccc1-c1cc(C2CCC(C(C)C(=O)O)CC2)ncc1N(C)C(=O)C(C)(C)c1cc(C(F)(F)F)cc(C(F)(F)F)c1 (stereo not drawn) [Example 10, 2-{4-[5-{[2-(3,5-Bistrifluoromethylphenyl)-2-methylpropionyl]methylamino}-4-(4-fluoro-2-methylphenyl)pyridin-2-yl]cyclohexyl}propionic acid] | 97 | – |
| Cc1ccccc1-c1cc(C2CCC(CC(=O)O)CC2)nc(C#N)c1N(C)C(=O)C(C)(C)c1cc(C(F)(F)F)cc(C(F)(F)F)c1 (stereo not drawn) [Example 16, [4-(5-{[2-(3,5-Bistrifluoromethylphenyl)-2-methylpropionyl]methylamino}-6-cyano-4-ortho-tolylpyridin-2-yl)cyclohexyl]acetic acid] | 93 | – |
| Cc1ccccc1-c1cc(C2CCC(CC(=O)O)CC2)ncc1N(C)C(=O)C(C)(C)c1cc(C(F)(F)F)cc(C(F)(F)F)c1 (stereo not drawn) [Example 9, {4-[5-{[2-(3,5-Bistrifluoromethylphenyl)-2-methylpropionyl]methylamino}-4-ortho-tolylpyridin-2-yl]-cyclohexyl}acetic acid] | 75 | – |
| Cc1cc(F)ccc1-c1cc(C2CCC(CC(=O)O)CC2)nc(C#N)c1N(C)C(=O)C(C)(C)c1cc(C(F)(F)F)cc(C(F)(F)F)c1 (stereo not drawn) [Example 8, {4-[5-{[2-(3,5-Bistrifluoromethylphenyl)-2-methylpropionyl]methylamino}-6-cyano-4-(4-fluoro-2-methylphenyl)pyridin-2-yl]cyclohexyl}acetic acid] | 100 | – |
| Cc1cc(F)ccc1-c1cc([C@H]2CC[C@H](CC(=O)O)CC2)ncc1N(C)C(=O)C(C)(C)c1cc(C(F)(F)F)cc(C(F)(F)F)c1 [Example 13, trans-{4-[5-{[2-(3,5-Bistrifluoromethylphenyl)-2-methylpropionyl]methylamino}-4-(4-fluoro-2-methylphenyl)pyridin-2-yl]cyclohexyl}acetic acid] | 100 | number of retching and vomiting, delayed phase ([2]; 24 hours to 72 hours): inhibition of the number of retching and vomiting was observed; number of retching and vomiting, acute phase ([2]; up to 24 hours): inhibition of the number of retching and vomiting was observed; clearance ([3]; 0.1 mg/kg intravenous, read-out: CL tot (total body clearance)): 0.13 mL/min/kg; Vd ([3]; 0.1 mg/kg intravenous, read-out: Vss (steady-state volume of distribution)): 0.401 L/kg; half-life ([3]; 0.1 mg/kg intravenous, read-out: t1/2 (half-life)): 41.5 h; AUC ([3]; 1 mg/kg oral, read-out: AUC (area under the plasma concentration-time curve within 7 days) (converted)): 88200 ng·h/mL; bioavailability ([3]; 1 mg/kg oral, read-out: BA (bioavailability)): 66%; Cmax ([3]; 1 mg/kg oral, read-out: Cmax (maximum plasma test compound concentration)): 1260 ng/mL |
| Cc1cc(F)ccc1-c1cc(C2CCC(CC(=O)O)CC2)nc(CO)c1N(C)C(=O)C(C)(C)c1cc(C(F)(F)F)cc(C(F)(F)F)c1 (stereo not drawn) [Example 19, {4-[5-{[2-(3,5-Bistrifluoromethylphenyl)-2-methylpropionyl]methylamino}-4-(4-fluoro-2-methylphenyl)-6-hydroxymethylpyridin-2-yl]cyclohexyl}acetic acid] | 95 | – |
| Cc1cc(F)ccc1-c1cc(C2CCC(C(=O)O)CC2)ncc1N(C)C(=O)C(C)(C)c1cc(C(F)(F)F)cc(C(F)(F)F)c1 (stereo not drawn) [Example 1, 4-[5-{[2-(3,5-Bistrifluoromethylphenyl)-2-methylpropionyl]methylamino}-4-(4-fluoro-2-methylphenyl)pyridin-2-yl]cyclohexanecarboxylic acid] | 98 | – |
| Cc1cc(F)ccc1-c1cc([C@H]2CC[C@@H](CC(=O)O)CC2)ncc1N(C)C(=O)C(C)(C)c1cc(C(F)(F)F)cc(C(F)(F)F)c1 [Example 14, cis-{4-[5-{[2-(3,5-bistrifluoromethylphenyl)-2-methylpropionyl]methylamino}-4-(4-fluoro-2-methylphenyl)pyridin-2-yl]cyclohexyl}acetic acid] | 99 | – |
| Cc1cc(F)ccc1-c1cc(C2CCCC(CC(=O)O)C2)ncc1N(C)C(=O)C(C)(C)c1cc(C(F)(F)F)cc(C(F)(F)F)c1 (stereo not drawn) [Example 3, {3-[5-{[2-(3,5-Bistrifluoromethylphenyl)-2-methylpropionyl]methylamino}-4-(4-fluoro-2-methylphenyl)pyridin-2-yl]cyclohexyl}acetic acid] | 100 | – |
| Cc1cc(F)ccc1-c1cc([C@H]2CC[C@H](CC(=O)O)CC2)nc(C#N)c1N(C)C(=O)C(C)(C)c1cc(C(F)(F)F)cc(C(F)(F)F)c1 [Example 20, trans-{4-[5-{[2-(3,5-Bistrifluoromethylphenyl)-2-methylpropionyl]methylamino}-6-cyano-4-(4-fluoro-2-methylphenyl)pyridin-2-yl]cyclohexyl}acetic acid] | 100 | – |
| Cc1cc(F)ccc1-c1cc(C2CCC(CC(=O)O)CC2)nc(C)c1N(C)C(=O)C(C)(C)c1cc(C(F)(F)F)cc(C(F)(F)F)c1 (stereo not drawn) [Example 18, {4-[5-{[2-(3,5-Bistrifluoromethylphenyl)-2-methylpropionyl]methylamino}-4-(4-fluoro-2-methylphenyl)-6-methylpyridin-2-yl]cyclohexyl}acetic acid] | 100 | – |
| Cc1cc(F)ccc1-c1cc(C2CCC3(CC2)CC3C(=O)O)ncc1N(C)C(=O)C(C)(C)c1cc(C(F)(F)F)cc(C(F)(F)F)c1 (stereo not drawn) [Example 7, 6-[5-{[2-(3,5-Bistrifluoromethylphenyl)-2-methylpropionyl]methylamino}-4-(4-fluoro-2-methylphenyl)pyridin-2-yl]spiro[2.5]octane-1-carboxylic acid] | 90 | – |
| Cc1cc(F)ccc1-c1cc([C@H]2CC[C@H](C(C)(C)C(=O)O)CC2)ncc1N(C)C(=O)C(C)(C)c1cc(C(F)(F)F)cc(C(F)(F)F)c1 [Example 11, trans-2-{4-[5-{[2-(3,5-Bistrifluoromethylphenyl)-2-methylpropionyl]methylamino}-4-(4-fluoro-2-methylphenyl)pyridin-2-yl]cyclohexyl}-2-methylpropionic acid] | 95 | – |
| Cc1cc(F)ccc1-c1cc(C2(C)CCCC(CC(=O)O)C2)ncc1N(C)C(=O)C(C)(C)c1cc(C(F)(F)F)cc(C(F)(F)F)c1 (stereo not drawn) [Example 4, {3-[5-{[2-(3,5-Bistrifluoromethylphenyl)-2-methylpropionyl]methylamino}-4-(4-fluoro-2-methylphenyl)pyridin-2-yl]-3-methylcyclohexyl}acetic acid] | 77 | – |
| Cc1cc(F)ccc1-c1cc(C2CCC(C)(CC(=O)O)CC2)ncc1N(C)C(=O)C(C)(C)c1cc(C(F)(F)F)cc(C(F)(F)F)c1 (stereo not drawn) [Example 15, {4-[5-{[2-(3,5-Bistrifluoromethylphenyl)-2-methylpropionyl]methylamino}-4-(4-fluoro-2-methylphenyl)pyridin-2-yl]-1-methylcyclohexyl}acetic acid] | 100 | – |
| Cc1cc(F)ccc1-c1cc([C@H]2CC[C@@H](CC(=O)O)CC2)nc(C#N)c1N(C)C(=O)C(C)(C)c1cc(C(F)(F)F)cc(C(F)(F)F)c1 [Example 21, cis-{4-[5-{[2-(3,5-bistrifluoromethylphenyl)-2-methylpropionyl]methylamino}-6-cyano-4-(4-fluoro-2-methylphenyl)pyridin-2-yl]cyclohexyl}acetic acid] | 100 | – |
